Reference: PubChem BioAssay AID1963966 (Molecular Pharmacology Branch, DTP, NCI, 2024)

Tested on: 935938-334-R-J1-PDC spheroids with HUVEC/MSC, viability
Assay: Anticancer human tumor 935938-334-R-J1-PDC patient-derived small intestine adenocarcinoma cell line growth inhibition [PI3K]
Conditions: for IC50: curve of first compound; for viability, T/C: stronger effect = lower value
Procedure, shortened: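 We assembled tumor spheroids that included a stromal compartment of HUVEC and MSCs, then exposed them to targeted agents alone and together with PI3K pathway inhibitors. Concentration series descended by half-log from clinically achievable Cmax levels. Viability served as the endpoint.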
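Also: compound exposure lasted seven days before viability was read.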
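For viability, T/C in this document: percent of vehicle DMSO treated spheroid viability so 100% = untreated.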

`C[C@@H](NC(=O)c1ncnc(N)c1Cl)c1ncc(C(=O)Nc2cc(C(F)(F)F)c(Cl)cn2)s1` + CC(Nc1ccc2c(c1)OCCn1cc(N3C(=O)OCC3C(F)F)nc1-2)C(N)=O was tested, and the IC50 (second compound 0.00316 µM) was greater than 10 µM, the IC50 (second compound 0.01 µM) was greater than 10 µM and the IC50 (second compound 0.0316 µM) was greater than 10 µM. It also gave an IC50 (second compound 0.1 µM) greater than 10 µM, an IC50 (second compound 0.316 µM) of 9.36 µM and an IC50 (second compound 1 µM) of 9.57 µM. The viability, T/C (second compound 0.00316 µM, first compound 0.0316 µM) was 97.2%, the viability, T/C (second compound 0.00316 µM, first compound 0.1 µM) was 92.4% and the viability, T/C (second compound 0.00316 µM, first compound 0.316 µM) was 104%. The viability, T/C (second compound 0.00316 µM, first compound 1 µM) was 110%, the viability, T/C (second compound 0.00316 µM, first compound 3.16 µM) was 87.5% and the viability, T/C (second compound 0.00316 µM, first compound 10 µM) was 99.4%. The viability, T/C (second compound 0.01 µM, first compound 0.0316 µM) was 95.3%, the viability, T/C (second compound 0.01 µM, first compound 0.1 µM) was 88.6% and the viability, T/C (second compound 0.01 µM, first compound 0.316 µM) was 105%. It also gave a viability, T/C (second compound 0.01 µM, first compound 1 µM) of 107%, a viability, T/C (second compound 0.01 µM, first compound 3.16 µM) of 111% and a viability, T/C (second compound 0.01 µM, first compound 10 µM) of 90.5%. It also gave a viability, T/C (second compound 0.0316 µM, first compound 0.0316 µM) of 94.8%, a viability, T/C (second compound 0.0316 µM, first compound 0.1 µM) of 88.8% and a viability, T/C (second compound 0.0316 µM, first compound 0.316 µM) of 92.7%. It also gave a viability, T/C (second compound 0.0316 µM, first compound 1 µM) of 113%, a viability, T/C (second compound 0.0316 µM, first compound 3.16 µM) of 99.6% and a viability, T/C (second compound 0.0316 µM, first compound 10 µM) of 80.3%. The viability, T/C (second compound 0.1 µM, first compound 0.0316 µM) was 89%, the viability, T/C (second compound 0.1 µM, first compound 0.1 µM) was 98.4% and the viability, T/C (second compound 0.1 µM, first compound 0.316 µM) was 100%. For the same compound, the viability, T/C (second compound 0.1 µM, first compound 1 µM) was 107%, the viability, T/C (second compound 0.1 µM, first compound 3.16 µM) was 92.6% and the viability, T/C (second compound 0.1 µM, first compound 10 µM) was 85.6%. It also gave a viability, T/C (second compound 0.316 µM, first compound 0.0316 µM) of 108%, a viability, T/C (second compound 0.316 µM, first compound 0.1 µM) of 111% and a viability, T/C (second compound 0.316 µM, first compound 0.316 µM) of 83.7%. The viability, T/C (second compound 0.316 µM, first compound 1 µM) was 79%, the viability, T/C (second compound 0.316 µM, first compound 3.16 µM) was 104% and the viability, T/C (second compound 0.316 µM, first compound 10 µM) was 47.2%. It also gave a viability, T/C (second compound 1 µM, first compound 0.0316 µM) of 66.7%, a viability, T/C (second compound 1 µM, first compound 0.1 µM) of 95.4% and a viability, T/C (second compound 1 µM, first compound 0.316 µM) of 78.4%. The viability, T/C (second compound 1 µM, first compound 1 µM) was 86.5%, the viability, T/C (second compound 1 µM, first compound 3.16 µM) was 90% and the viability, T/C (second compound 1 µM, first compound 10 µM) was 48.7%.
